Active and inactive are the calls of the source.
molecular target: T1, Alkaline phosphatase, tissue-nonspecific isozyme (Homo sapiens, UniProt P05186); assay: human TNAP enzyme inhibitors, SAR follow-up, biochemical, luminescent, dose response (AID 1056); settings: not given
T1 sequence (P05186 whole entry): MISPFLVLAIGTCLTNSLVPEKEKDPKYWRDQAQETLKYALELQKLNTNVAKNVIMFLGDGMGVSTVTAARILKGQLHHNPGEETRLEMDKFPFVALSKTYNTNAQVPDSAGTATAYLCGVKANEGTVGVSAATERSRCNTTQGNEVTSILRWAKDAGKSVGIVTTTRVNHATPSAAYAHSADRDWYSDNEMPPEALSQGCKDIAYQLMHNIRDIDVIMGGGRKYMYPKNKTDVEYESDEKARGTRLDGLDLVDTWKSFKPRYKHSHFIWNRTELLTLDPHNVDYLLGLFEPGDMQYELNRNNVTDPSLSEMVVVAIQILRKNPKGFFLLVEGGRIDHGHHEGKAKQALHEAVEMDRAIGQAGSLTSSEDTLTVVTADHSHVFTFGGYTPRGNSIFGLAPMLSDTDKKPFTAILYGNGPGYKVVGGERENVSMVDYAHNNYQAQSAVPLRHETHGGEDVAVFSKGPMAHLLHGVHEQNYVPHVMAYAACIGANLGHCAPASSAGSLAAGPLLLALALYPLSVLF

Row | IC50 | Compound
1 | 10.9 µM (active) | O=S(=O)(Nc1cccnc1)c1ccc(Br)cc1OC(F)(F)F
2 | > 10 µM (inactive) | O=C1C2CCCCC2C(=O)N1c1nccs1 (stereo not drawn)
3 | 1.7 µM (active) | CCOc1cc(C)c(C)cc1S(=O)(=O)Nc1cccnc1

system: not listed separately; assay: HEK293T cytotoxicity, dose response, cytotoxicity control for miR-122 modulator project, cell-based, inhibitor set, cherry-pick, set 2 (AID 720697); format: functional; settings: not given

Row | Compound | AC50
4 | N#Cc1c(N)nc2c(c1-c1cccs1)CCCC2 | 6.16 µM (active)
5 | O=C(Cn1c(=O)c2ccccc2n(CC(=O)N2CCCCC2)c1=O)N1CCCCC1 | 6.5 µM (active)
6 | CN(C)CCCNC(=O)C[C@H]1CC[C@H]2[C@H](COc3ccc(NC(=O)NC4CCCC4)cc3C(=O)N2C)O1 | 0.509 µM (active)
7 | CCNC(=O)C[C@H]1CC[C@H]2[C@H](COc3ccc(NS(C)(=O)=O)cc3C(=O)N2C)O1 | 3.57 µM (active)

molecular target: Glyceraldehyde-3-phosphate dehydrogenase (Homo sapiens, UniProt P04406); assay: not given; settings: not given
Sequence (P04406 whole entry): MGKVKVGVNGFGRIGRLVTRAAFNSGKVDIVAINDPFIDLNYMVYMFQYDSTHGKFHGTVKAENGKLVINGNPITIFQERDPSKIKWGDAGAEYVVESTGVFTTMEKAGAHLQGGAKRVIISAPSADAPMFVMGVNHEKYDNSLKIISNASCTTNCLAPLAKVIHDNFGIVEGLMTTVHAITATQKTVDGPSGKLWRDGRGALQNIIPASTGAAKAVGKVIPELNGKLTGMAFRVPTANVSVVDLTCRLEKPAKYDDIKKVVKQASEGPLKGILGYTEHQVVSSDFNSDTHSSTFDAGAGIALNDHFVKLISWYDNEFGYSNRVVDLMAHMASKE

Row | IC50 | Compound
8 | > 100 µM (not active) | O=S(=O)(Nc1cccnc1)c1ccc(Br)cc1OC(F)(F)F
9 | > 10 µM (inconclusive) | O=C1C2CCCCC2C(=O)N1c1nccs1 (stereo not drawn)
10 | > 100 µM (not active) | CCOc1cc(C)c(C)cc1S(=O)(=O)Nc1cccnc1

system: SN12K1; assay: cells; format: functional; settings: Homo sapiens

Row | Compound | GI50
11 | COc1nc(SC)nc2c1cnn2C1OC(C(O)CO)C(OC)C1O (stereo not drawn) | > 54.3 µM (inactive)
12 | O=C(NN1C(=O)CS(=O)(=O)C1c1ccc(Cl)c(Cl)c1)c1ccncc1 (stereo not drawn) | > 100 µM (inactive)
13 | C[N+](C)([O-])CCOc1cc2c(c3ccccc13)-c1ccccc1C2=O | 4.37 µM (inactive)
14 | CN(C)CCNC(=O)c1cccc2ccc(-c3ccc(F)cc3)nc12 | 2.96 µM (inactive)
15 | CCC(/C=C/C1OC(=O)C=CC1C)=C\C(C)C/C=C/C(C)=C/C(C)C(=O)C(C)C(O)C(C)C/C(C)=C/C(=O)O (stereo not drawn) | 1.56 µM (inactive)
16 | O=[N+]([O-])c1ccc2[nH]c3c(-c4ccccc4)nccc3c2c1 | 20.5 µM (inactive)

molecular target: Disintegrin and metalloproteinase domain-containing protein 17 (Homo sapiens, UniProt P78536); assay: exosite inhibitors of ADAM17, dose response, biochemical (AID 743260); settings: not given
Sequence (P78536 whole entry, the tested form may be a part): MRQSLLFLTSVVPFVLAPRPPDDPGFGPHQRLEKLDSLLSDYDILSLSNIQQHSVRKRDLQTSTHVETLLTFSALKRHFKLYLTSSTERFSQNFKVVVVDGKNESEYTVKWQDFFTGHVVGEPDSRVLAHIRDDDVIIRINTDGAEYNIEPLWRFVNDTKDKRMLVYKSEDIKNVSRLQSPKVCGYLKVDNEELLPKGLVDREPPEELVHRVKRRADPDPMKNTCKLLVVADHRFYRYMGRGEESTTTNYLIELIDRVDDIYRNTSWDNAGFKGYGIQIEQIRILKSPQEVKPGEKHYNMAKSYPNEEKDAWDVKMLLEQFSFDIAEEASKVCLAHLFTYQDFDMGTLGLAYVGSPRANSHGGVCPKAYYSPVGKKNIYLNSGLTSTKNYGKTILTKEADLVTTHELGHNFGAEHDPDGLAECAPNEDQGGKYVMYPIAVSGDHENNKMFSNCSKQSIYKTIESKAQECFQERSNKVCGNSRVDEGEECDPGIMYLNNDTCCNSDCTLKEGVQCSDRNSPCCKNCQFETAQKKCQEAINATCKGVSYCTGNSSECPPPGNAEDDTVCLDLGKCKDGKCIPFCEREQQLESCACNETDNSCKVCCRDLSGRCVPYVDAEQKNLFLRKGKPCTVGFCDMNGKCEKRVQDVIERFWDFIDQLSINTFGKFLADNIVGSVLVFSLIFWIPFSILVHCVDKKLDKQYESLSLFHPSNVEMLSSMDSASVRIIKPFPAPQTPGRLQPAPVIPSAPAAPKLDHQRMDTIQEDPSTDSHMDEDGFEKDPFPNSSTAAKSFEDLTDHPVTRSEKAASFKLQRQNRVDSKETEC

Row | IC50 | Compound
17 | > 69.5 µM (inactive) | O=C(Nc1cc(Cl)ccc1O)C1CC(c2c(F)cccc2Cl)=NO1 (stereo not drawn)
18 | > 69.5 µM (inactive) | CN(c1ccc(OCc2ccc([N+](=O)[O-])cc2)cc1)S(=O)(=O)c1ccccc1
19 | > 69.5 µM (inactive) | Clc1cccc(NCc2nnc(SCc3ccc(Cl)cc3Cl)o2)c1
20 | > 69.5 µM (inactive) | COc1ccc(C2=NS(=O)(=O)N(C)C(C(=O)Nc3ccc(C)cc3)=C2)cc1
21 | > 69.5 µM (inactive) | COc1ccc(NC(=O)C2CCN(S(=O)(=O)c3c(C)noc3/C=C/N(C)C)CC2)cc1

system: P388; assay: cells; format: functional; settings: Mus musculus

Row | Compound | GI50
22 | COc1nc(SC)nc2c1cnn2C1OC(C(O)CO)C(OC)C1O (stereo not drawn) | > 39.4 µM (inactive)
23 | O=C(NN1C(=O)CS(=O)(=O)C1c1ccc(Cl)c(Cl)c1)c1ccncc1 (stereo not drawn) | 25.6 µM (inactive)
24 | C[N+](C)([O-])CCOc1cc2c(c3ccccc13)-c1ccccc1C2=O | 6.19 µM (inactive)
25 | CN(C)CCNC(=O)c1cccc2ccc(-c3ccc(F)cc3)nc12 | 0.61 µM (active)
26 | CCC(/C=C/C1OC(=O)C=CC1C)=C\C(C)C/C=C/C(C)=C/C(C)C(=O)C(C)C(O)C(C)C/C(C)=C/C(=O)O (stereo not drawn) | 0.914 µM (active)
27 | O=[N+]([O-])c1ccc2[nH]c3c(-c4ccccc4)nccc3c2c1 | 10.9 µM (inactive)

system: not listed separately; assay: HEp-2 cell cytotoxicity, dose response, cytotoxicity control for RSV inhibitor project, HTS (AID 2410); format: functional; settings: human respiratory syncytial virus

Row | Compound | CC50
28 | Clc1cccc(NCc2nnc(SCc3ccc(Cl)cc3Cl)o2)c1 | 19.1 µM (active)

system: P388/ADR; assay: cells; format: functional; settings: Mus musculus

Row | Compound | GI50
29 | COc1nc(SC)nc2c1cnn2C1OC(C(O)CO)C(OC)C1O (stereo not drawn) | 41.3 µM (inactive)
30 | O=C(NN1C(=O)CS(=O)(=O)C1c1ccc(Cl)c(Cl)c1)c1ccncc1 (stereo not drawn) | 36.6 µM (inactive)
31 | C[N+](C)([O-])CCOc1cc2c(c3ccccc13)-c1ccccc1C2=O | 8.79 µM (inactive)
32 | CN(C)CCNC(=O)c1cccc2ccc(-c3ccc(F)cc3)nc12 | 1.75 µM (inactive)
33 | O=[N+]([O-])c1ccc2[nH]c3c(-c4ccccc4)nccc3c2c1 | 12.9 µM (inactive)

system: not listed separately; assay: ADAM10 protease inhibitors, dose response, selectivity assay for ADAM17 exosite inhibitor project, biochemical, FRET peptide substrate, recombinant human ADAM10 (AID 743259); settings: not given;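 also: ADAM10 enzyme cleaving a FRET peptide substrate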

Row | Compound | IC50
34 | O=C(Nc1cc(Cl)ccc1O)C1CC(c2c(F)cccc2Cl)=NO1 (stereo not drawn) | > 69.5 µM (inactive)
35 | CN(c1ccc(OCc2ccc([N+](=O)[O-])cc2)cc1)S(=O)(=O)c1ccccc1 | > 69.5 µM (inactive)
36 | Clc1cccc(NCc2nnc(SCc3ccc(Cl)cc3Cl)o2)c1 | 25.4 µM (inactive)
37 | COc1ccc(C2=NS(=O)(=O)N(C)C(C(=O)Nc3ccc(C)cc3)=C2)cc1 | 56.7 µM (inactive)
38 | COc1ccc(NC(=O)C2CCN(S(=O)(=O)c3c(C)noc3/C=C/N(C)C)CC2)cc1 | 23.9 µM (inactive)

From ChEMBL document CHEMBL1201862, “PubChem BioAssay data set” (2004)
